doi:10.1101/2024.08.19.608619, “Discovery of potent SARS-CoV-2 nsp3 macrodomain inhibitors uncovers lack of translation to cellular antiviral response” (bioRxiv, 2024)

Legend:
CB1 (h) = target: T1, CB1 (h) (Homo sapiens, UniProt P21554); test: In vitro CEREP profiling, CB1 (h) (agonist radioligand); type: binding; settings: test compound 10 uM; for inhibition at 10 µM: read-out: perc_inhibition (% inhibition of the binding of a ligand specific for each target)
T1 construct: purchased Eurofins Cerep (SafetyScreen44), recognised from the panel format
Source text: (§1) Supplement media-1.zip/Safety_Panel_Profile.csv, table | column: perc_inhibition

[1] = In vitro human hepatocyte stability; type: in vitro ADME
Source text: Supplement media-1.zip/Hepatocyte_Stability.csv, table | column: clint; t_half

GR (h) = target: T2, GR (h) (Homo sapiens, UniProt P04150); test: In vitro CEREP profiling, GR (h) (agonist radioligand); type: binding; settings: test compound concentration 10 uM; for inhibition at 10 µM: read-out: perc_inhibition, % inhibition of the binding of a ligand specific for each target
T2 construct: purchased Eurofins Cerep (SafetyScreen44), recognised from the panel format
T2 sequence (P04150 1-777): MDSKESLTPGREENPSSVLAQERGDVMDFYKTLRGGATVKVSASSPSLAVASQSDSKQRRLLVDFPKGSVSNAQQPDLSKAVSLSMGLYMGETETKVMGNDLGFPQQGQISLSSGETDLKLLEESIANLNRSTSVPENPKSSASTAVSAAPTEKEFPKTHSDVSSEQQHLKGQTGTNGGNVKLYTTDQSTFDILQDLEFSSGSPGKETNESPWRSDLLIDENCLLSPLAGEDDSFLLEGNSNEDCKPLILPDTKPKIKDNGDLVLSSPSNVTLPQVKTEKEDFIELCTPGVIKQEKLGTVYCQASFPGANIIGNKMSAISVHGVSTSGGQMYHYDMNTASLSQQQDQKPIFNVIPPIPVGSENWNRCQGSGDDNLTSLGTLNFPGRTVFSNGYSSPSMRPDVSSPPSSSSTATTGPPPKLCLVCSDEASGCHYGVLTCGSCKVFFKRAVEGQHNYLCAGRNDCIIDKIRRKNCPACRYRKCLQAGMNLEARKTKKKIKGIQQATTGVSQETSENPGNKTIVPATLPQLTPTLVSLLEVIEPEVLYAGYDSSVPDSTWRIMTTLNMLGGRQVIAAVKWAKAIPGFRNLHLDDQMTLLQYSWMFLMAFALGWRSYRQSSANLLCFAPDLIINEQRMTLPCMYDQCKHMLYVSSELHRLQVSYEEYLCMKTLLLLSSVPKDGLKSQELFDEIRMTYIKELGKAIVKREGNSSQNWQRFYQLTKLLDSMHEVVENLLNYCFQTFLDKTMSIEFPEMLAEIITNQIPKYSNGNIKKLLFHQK
Source text: as §1

CYP = CYP inhibition; type: in vitro ADME; settings: In vitro CYP inhibition pooled; for potency: potency class in words
Source text: Supplement media-1.zip/CYP_Inhibition.csv, table | column: ic50; potency

NMDA = test: In vitro CEREP profiling, NMDA (antagonist radioligand); type: binding; settings: test compound concentration 10 uM
Source text: as §1

delta (DOP) (h) = target: T3, delta (DOP) (h) (Homo sapiens, UniProt P41143); test: In vitro CEREP profiling, delta (DOP) (h) (agonist radioligand); type: binding; settings: test compound concentration 10 uM; for inhibition at 10 µM: read-out: perc_inhibition (% inhibition of the binding of a ligand specific for each target)
T3 construct: purchased Eurofins Cerep (SafetyScreen44), recognised from the panel format
Source text: as §1

MAO-A = target: T4, MAO-A (Rattus norvegicus, UniProt P21396); test: In vitro CEREP profiling, MAO-A (antagonist radioligand); type: binding; settings: test compound concentration 10 uM; for inhibition at 10 µM: read-out: perc_inhibition (% inhibition of the binding of a ligand specific for each target)
T4 construct: purchased Eurofins Cerep (SafetyScreen44), recognised from the panel format
T4 sequence (P21396 1-526): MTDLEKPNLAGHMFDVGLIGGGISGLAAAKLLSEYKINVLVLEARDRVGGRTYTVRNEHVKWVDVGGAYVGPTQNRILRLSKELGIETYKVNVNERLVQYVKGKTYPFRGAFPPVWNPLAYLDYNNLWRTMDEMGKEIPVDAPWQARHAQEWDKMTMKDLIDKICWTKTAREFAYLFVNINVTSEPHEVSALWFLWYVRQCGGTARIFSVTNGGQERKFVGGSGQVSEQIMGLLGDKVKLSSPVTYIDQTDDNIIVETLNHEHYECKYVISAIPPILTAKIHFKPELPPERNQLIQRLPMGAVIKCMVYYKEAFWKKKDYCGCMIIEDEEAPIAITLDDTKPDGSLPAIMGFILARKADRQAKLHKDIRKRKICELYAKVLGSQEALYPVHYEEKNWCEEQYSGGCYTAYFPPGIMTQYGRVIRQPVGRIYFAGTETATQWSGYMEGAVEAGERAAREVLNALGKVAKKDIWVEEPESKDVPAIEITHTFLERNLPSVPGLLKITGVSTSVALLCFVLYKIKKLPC
Source text: as §1

5-HT2B (h) = target: T5, 5-HT2B (h) (Homo sapiens, UniProt P41595); test: In vitro CEREP profiling, 5-HT2B (h) (agonist radioligand); type: binding; settings: test compound concentration 10 uM; for inhibition at 10 µM: read-out: perc_inhibition, % inhibition of the binding of a ligand specific for each target
T5 construct: purchased Eurofins Cerep (SafetyScreen44), recognised from the panel format
Source text: as §1

PDE4D2 (h) = target: T6, PDE4D2 (h) (Homo sapiens, UniProt Q08499); test: In vitro CEREP profiling, PDE4D2 (h); type: biochemical; settings: test compound concentration 10 uM, Enzyme and Cell-based assays; for inhibition at 10 µM: read-out: perc_inhibition: % inhibition of control enzyme activity, PDE4D2 (h)
T6 construct: purchased Eurofins Cerep (SafetyScreen44), recognised from the panel format
Source text: as §1

5-HT2A (h) = target: T7, 5-HT2A (h) (Homo sapiens, UniProt P28223); test: In vitro CEREP profiling, 5-HT2A (h) (agonist radioligand); type: binding; settings: test compound concentration 10 uM; for inhibition at 10 µM: read-out: perc_inhibition, % inhibition of the binding of a ligand specific for each target
T7 construct: purchased Eurofins Cerep (SafetyScreen44), recognised from the panel format
Source text: as §1

KOR receptor = target: T8, KOR receptor (Homo sapiens, UniProt P41145); test: Eurofins CEREP panel, KOR; type: binding; settings: for inhibition at 10 µM: read-out: perc_inhibition (% inhibition of the binding of a ligand specific for each target)
T8 construct: purchased Eurofins Cerep (SafetyScreen44), recognised from the panel format

ETA (h) = target: T9, ETA (h) (Homo sapiens, UniProt P25101); test: In vitro CEREP profiling, ETA (h) (agonist radioligand); type: binding; settings: test compound 10 uM; for inhibition at 10 µM: read-out: perc_inhibition (% inhibition of the binding of a ligand specific for each target)
T9 construct: purchased Eurofins Cerep (SafetyScreen44), recognised from the panel format
T9 sequence (P25101 21-427): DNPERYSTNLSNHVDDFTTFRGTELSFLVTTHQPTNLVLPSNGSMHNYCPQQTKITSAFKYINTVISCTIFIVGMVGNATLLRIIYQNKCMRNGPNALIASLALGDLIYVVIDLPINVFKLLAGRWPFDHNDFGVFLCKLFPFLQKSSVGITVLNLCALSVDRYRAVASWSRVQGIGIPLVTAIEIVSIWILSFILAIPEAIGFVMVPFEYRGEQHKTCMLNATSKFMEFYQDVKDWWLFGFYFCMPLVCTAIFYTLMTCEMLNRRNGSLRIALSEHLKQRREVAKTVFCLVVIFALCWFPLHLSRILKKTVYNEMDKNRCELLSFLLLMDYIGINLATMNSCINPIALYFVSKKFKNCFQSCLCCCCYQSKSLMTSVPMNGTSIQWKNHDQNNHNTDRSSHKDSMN
Source text: as §1

[2] = kappa (h) (KOP) (agonist radioligand), test compound concentration 10 uM

T1 sequence (P21554 whole entry): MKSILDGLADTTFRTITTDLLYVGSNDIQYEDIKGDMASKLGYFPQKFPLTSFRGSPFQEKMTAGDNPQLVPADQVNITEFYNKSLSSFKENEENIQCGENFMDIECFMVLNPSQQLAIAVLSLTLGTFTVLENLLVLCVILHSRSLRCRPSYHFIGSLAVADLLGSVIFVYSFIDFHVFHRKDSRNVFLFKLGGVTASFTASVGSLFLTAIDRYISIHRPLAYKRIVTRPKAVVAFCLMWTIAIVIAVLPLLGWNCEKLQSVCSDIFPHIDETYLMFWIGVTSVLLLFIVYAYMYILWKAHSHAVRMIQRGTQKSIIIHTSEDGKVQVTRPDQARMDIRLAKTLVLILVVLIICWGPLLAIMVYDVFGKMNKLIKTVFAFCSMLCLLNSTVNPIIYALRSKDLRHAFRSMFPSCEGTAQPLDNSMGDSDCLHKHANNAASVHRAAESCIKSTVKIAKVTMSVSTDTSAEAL
T6 sequence (Q08499 303-809): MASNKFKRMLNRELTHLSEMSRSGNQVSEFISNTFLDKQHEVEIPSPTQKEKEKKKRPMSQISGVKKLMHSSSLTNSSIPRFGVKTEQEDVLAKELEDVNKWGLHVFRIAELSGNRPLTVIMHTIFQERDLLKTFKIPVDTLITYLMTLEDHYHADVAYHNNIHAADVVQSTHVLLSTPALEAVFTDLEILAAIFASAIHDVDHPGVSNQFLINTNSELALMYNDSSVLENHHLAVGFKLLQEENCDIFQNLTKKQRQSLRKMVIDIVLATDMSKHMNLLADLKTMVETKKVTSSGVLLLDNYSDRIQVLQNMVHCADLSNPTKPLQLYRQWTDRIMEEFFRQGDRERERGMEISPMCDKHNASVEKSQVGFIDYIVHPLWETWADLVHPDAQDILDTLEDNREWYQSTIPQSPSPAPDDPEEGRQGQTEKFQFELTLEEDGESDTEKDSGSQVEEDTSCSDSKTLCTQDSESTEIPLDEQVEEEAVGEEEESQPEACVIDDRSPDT
T5 sequence (P41595 whole entry): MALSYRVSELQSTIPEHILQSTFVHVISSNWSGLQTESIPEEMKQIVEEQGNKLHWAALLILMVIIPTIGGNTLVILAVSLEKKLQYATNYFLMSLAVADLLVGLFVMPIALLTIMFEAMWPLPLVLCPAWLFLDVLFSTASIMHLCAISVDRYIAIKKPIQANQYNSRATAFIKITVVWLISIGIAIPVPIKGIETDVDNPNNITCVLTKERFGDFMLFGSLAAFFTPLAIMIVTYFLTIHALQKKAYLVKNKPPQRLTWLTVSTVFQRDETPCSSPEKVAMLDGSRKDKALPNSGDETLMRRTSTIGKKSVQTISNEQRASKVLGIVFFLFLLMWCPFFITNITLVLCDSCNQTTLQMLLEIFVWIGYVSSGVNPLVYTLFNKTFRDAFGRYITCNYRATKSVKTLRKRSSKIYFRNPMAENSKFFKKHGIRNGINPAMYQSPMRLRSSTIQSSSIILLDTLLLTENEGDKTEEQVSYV
T8 sequence (P41145 whole entry): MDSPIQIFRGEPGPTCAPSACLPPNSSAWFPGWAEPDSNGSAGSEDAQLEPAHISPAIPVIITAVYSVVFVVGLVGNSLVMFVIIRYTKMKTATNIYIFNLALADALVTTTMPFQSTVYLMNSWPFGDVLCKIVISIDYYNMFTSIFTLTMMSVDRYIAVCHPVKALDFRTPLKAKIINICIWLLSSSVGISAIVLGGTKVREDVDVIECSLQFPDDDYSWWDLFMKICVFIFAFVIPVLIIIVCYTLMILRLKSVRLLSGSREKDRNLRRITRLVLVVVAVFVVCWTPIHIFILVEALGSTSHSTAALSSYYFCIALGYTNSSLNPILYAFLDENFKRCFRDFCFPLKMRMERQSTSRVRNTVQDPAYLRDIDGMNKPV
T3 sequence (P41143 whole entry): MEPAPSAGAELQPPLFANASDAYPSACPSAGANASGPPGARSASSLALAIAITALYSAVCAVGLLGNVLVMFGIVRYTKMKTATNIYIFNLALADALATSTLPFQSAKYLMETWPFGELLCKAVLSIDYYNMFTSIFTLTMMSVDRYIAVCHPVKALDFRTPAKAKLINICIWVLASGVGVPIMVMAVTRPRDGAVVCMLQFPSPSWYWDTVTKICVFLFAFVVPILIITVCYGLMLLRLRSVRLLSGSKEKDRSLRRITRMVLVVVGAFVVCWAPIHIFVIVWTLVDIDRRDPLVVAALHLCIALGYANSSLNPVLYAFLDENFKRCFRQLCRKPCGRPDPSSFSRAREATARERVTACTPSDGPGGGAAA
T7 sequence (P28223 whole entry): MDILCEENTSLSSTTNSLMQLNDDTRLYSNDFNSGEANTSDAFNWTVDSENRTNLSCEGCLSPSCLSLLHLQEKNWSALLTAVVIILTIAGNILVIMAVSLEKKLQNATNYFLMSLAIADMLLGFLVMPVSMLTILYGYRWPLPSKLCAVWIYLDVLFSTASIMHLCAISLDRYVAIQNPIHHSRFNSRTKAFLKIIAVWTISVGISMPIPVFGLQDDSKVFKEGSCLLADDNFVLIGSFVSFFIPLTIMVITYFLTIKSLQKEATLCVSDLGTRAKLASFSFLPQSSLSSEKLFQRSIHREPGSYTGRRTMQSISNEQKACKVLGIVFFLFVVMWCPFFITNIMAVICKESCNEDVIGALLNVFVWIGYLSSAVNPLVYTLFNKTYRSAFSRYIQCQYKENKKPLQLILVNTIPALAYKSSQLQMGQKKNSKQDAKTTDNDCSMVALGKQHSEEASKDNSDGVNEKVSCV

| Structure (SMILES) | t_half [1] | potency (CYP; isoform 1A2) | potency (CYP; isoform 2C9) | potency (CYP; isoform 2C19) | potency (CYP; isoform 2D6) | potency (CYP; isoform 3A4) | perc_inhibition (% inhibition of the binding of a ligand specific for each target) (NMDA) | inhibition at 10 µM (CB1 (h)) | inhibition at 10 µM (GR (h)) | inhibition at 10 µM (delta (DOP) (h)) | inhibition at 10 µM (MAO-A) | inhibition at 10 µM (5-HT2B (h)) | inhibition at 10 µM (PDE4D2 (h)) | inhibition at 10 µM (5-HT2A (h)) | inhibition at 10 µM (KOR receptor; [2]) | inhibition at 10 µM (ETA (h)) | also measured |
| --- | --- | --- | --- | --- | --- | --- | --- | --- | --- | --- | --- | --- | --- | --- | --- | --- | --- |
| CNCc1cc(-c2cc3c(N[C@@H](c4ccc5c(c4)S(=O)(=O)CCC5)C(C)C)ncnc3[nH]2)co1 [ASAP-0011176] | 48.9 min | weak | moderate | weak | moderate | moderate-potent | -1% |  |  |  |  |  |  |  |  |  | perc_inhibition (% inhibition of the binding of a ligand specific for each target) (CB1 (h)): 3%; clint [1]: 14.2 uL/min/1E6 cells; perc_inhibition (% inhibition of the binding of a ligand specific for each target) (GR (h)): 21%; IC50 (CYP; isoform 1A2): 49.3 µM; IC50 (CYP; isoform 2C9): 5.25 µM; IC50 (CYP; isoform 2C19): 22.6 µM; IC50 (CYP; isoform 2D6): 9.03 µM; IC50 (CYP; isoform 3A4): 1.81 µM; perc_inhibition (% inhibition of the binding of a ligand specific for each target) (delta (DOP) (h)): 53%; perc_inhibition (% inhibition of the binding of a ligand specific for each target) (MAO-A): 11%; perc_inhibition (% inhibition of the binding of a ligand specific for each target) (5-HT2B (h)): -11%; perc_inhibition: % inhibition of control enzyme activity, PDE4D2 (h) (PDE4D2 (h)): 43%; perc_inhibition (% inhibition of the binding of a ligand specific for each target) (5-HT2A (h)): 29%; perc_inhibition (% inhibition of the binding of a ligand specific for each target) (KOR receptor; [2]): 57%; perc_inhibition (% inhibition of the binding of a ligand specific for each target) (ETA (h)): -1% |
| CC(C)C(Nc1ncnc2[nH]c(C(=O)NC3CCN(C)C3)cc12)c1ccc2c(c1)S(=O)(=O)CCC2 (centres unmarked) [ASAP-0011198] | > 231.0 min | weak | weak | weak | weak | weak | 1% | -10% | 11% | -16% | 3% | 6% | 37% | 1% | 78% | -6% | hepatocyte CLint ([1]; hepatocytes): < 3 µL/min/1e6 cells; off-target activity at KOR receptor, in words (KOR receptor; CEREP panel): moderate |
| Cc1nn(C)cc1-c1cc2c(NC(c3ccc4c(c3)S(=O)(=O)CCC4)C(C)C)ncnc2[nH]1 (centres unmarked) [ASAP-0011446] |  |  |  |  |  |  | -2% | 0% | 7% | 16% | 5% | 43% | 43% | 51% | 45% | -4% |  |
